# Data reported in patent publication US12209081B2 (Katholieke Universiteit Leuven, priority 2020, dated 2025).
# Target: mouse TRPM3α2 (mTRPM3) ion channel (Mus musculus (Mouse), UniProt J9SQF3)
# Experiment: TRPM3 ion channel driven Ca2+ uptake, Fluo-4 AM assay, mTRPM3alpha2 overexpressing flip-in HEK293 cells stimulated with pregnenolone sulfate
# Type: cell-based
# Conditions: PS 50 μM, cpds 300-399
# Method: Part B Monitoring the TRPM3 Ion Channel Driven Ca^2+ Uptake.
# In order to monitor the inhibition of the mouse TRPM3α2 (mTRPM3) ion channel by the compounds of the invention, a cellular system making use of an mTRPM3alpha2 or hTRPM3 overexpressing cell line (flip-in HEK293) was used. The TRPM3 channel was stimulated/opened with Pregnenolone sulfate (PS) (50 μM) which results in Ca^2+ influx.
# For mTRPM3, the intracellular Ca^2+ was measured with a Calcium responsive dye. Fluor-4 AM ester (Invitrogen). Cells were cultured until a confluence of 80-90%, washed with Versene (Invitrogen) and detached from the surface by a short incubation with 0.05% Trypsin (Invitrogen). The trypsination process was stopped by the addition of complete cell culture medium (DMEM, glutamax, 10% FCS,NEAA,Pen-Strep). Cells were collected and resuspended in Krebs buffer without Calcium at RT.
# Prior the cell seeding (±2000 cells/well into a black, 384 well plate (Greiner)) the diluted compound was added in the assay plate, together with the PS dissolved in Krebs buffer containing Calcium. […] Directly after cell addition the plates were read on an Envision fluorescence reader (Perkin Elmer) by an Excitation of 485 nm and emission at 535 nm.
# Channel inhibition was calculated compared to a non-PS stimulated control versus a condition stimulated with PS (50 μM) with vehicle. The ability of the compounds of the invention to inhibit this activity was determined as: Percentage inhibition=[1-((RFU determined for sample with test compound present—RFU determined for sample with positive control inhibitor) divided by (RFU determined in the presence of vehicle—RFU determined for sample with positive control inhibitor))]*100.
# mouse TRPM3α2 (mTRPM3) ion channel, sequence (J9SQF3 other isoform, or with tags, fused parts or gaps): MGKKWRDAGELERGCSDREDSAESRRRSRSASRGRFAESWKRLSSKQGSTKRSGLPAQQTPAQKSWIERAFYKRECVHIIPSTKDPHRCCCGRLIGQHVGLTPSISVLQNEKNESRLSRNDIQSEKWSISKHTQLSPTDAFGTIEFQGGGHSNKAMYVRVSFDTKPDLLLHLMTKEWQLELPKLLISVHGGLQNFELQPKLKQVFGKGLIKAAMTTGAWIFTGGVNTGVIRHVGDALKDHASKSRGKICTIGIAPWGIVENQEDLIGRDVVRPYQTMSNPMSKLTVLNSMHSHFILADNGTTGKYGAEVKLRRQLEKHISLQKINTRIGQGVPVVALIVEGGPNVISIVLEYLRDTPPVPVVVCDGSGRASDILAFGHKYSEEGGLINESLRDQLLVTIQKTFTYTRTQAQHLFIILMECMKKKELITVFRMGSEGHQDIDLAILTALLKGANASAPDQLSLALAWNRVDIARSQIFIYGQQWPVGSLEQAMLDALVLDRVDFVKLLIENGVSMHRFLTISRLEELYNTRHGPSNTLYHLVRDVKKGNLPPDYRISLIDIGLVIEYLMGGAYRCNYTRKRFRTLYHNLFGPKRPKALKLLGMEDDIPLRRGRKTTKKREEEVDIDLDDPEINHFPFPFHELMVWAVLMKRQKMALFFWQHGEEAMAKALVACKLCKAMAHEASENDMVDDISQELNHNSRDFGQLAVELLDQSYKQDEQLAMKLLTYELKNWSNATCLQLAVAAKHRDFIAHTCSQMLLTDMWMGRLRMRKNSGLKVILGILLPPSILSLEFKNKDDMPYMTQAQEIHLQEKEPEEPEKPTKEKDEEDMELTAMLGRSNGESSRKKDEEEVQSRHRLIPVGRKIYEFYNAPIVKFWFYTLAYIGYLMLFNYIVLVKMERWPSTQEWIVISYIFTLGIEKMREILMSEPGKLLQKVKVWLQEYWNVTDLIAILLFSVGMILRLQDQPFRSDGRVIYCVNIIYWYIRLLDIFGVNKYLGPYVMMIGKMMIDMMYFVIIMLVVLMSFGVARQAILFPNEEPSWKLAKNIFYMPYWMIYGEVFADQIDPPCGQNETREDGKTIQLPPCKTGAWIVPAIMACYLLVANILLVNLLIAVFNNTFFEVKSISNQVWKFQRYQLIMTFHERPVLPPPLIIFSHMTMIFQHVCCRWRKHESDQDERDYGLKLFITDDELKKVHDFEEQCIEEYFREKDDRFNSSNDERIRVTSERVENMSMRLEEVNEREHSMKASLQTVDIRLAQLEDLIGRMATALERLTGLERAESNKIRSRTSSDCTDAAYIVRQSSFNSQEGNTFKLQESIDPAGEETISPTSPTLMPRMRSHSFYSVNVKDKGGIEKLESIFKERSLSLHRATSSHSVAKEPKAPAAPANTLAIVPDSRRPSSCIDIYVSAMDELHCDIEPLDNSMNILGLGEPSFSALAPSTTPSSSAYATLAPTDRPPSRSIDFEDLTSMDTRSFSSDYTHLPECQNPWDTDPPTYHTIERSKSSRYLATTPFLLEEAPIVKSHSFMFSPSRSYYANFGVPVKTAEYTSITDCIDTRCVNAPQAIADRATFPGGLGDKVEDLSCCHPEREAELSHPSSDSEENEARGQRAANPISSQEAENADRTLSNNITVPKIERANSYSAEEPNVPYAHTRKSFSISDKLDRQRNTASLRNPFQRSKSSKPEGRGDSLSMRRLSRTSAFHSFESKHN
row,IC50,Structure (SMILES)
1,< 1 µM,"Cc1oc2ccc(OCc3ccnn3CC(F)F)cc2c1C(=O)NC1(CO)CCCNC1=O (single isomer, unassigned) [332-En 1, 5-((1-(2,2-difluoroethyl)-1H-pyrazol-5-yl)methoxy)-N-(3-(hydroxymethyl)-2-oxopiperidin-3-yl)-2-methylbenzofuran-3-carboxamide]"

# Same assay, conditions: PS (50 μM) stimulated, cpd 001-199
row,Structure (SMILES),IC50
1,"Cc1ncsc1COc1ccc2oc(C)c(C(=O)NC3(CCO)CCOC3)c2c1 (single isomer, unassigned) [121-En 1, N-(3-(2-hydroxyethyl)tetrahydrofuran-3-yl)-2-methyl-5-((4-methylthiazol-5-yl)methoxy)benzo-furan-3-carboxamide]",< 1 µM
2,"Cc1ncsc1COc1ccc2oc(C)c(C(=O)NC3CCN(CCO)C3=O)c2c1 (single isomer, unassigned) [160-En 1, N-(1-(2-hydroxyethyl)-2-oxopyrrolidin-3-yl)-2-methyl-5-((4-methylthiazol-5-yl)methoxy)benzo-furan-3-carboxamide]",< 1 µM
3,"Cc1ncsc1COc1ccc2oc(C)c(C(=O)NC3CN(C(=O)OCC(F)(F)F)CC3(F)F)c2c1 (single isomer, unassigned) [172-En 1, 2,2,2-trifluoroethyl 3,3-difluoro-4-(2-methyl-5-((4-methylthiazol-5-yl)methoxy)benzofuran-3-carboxamido)pyrrolidine-1-carboxylate]",< 1 µM
4,"Cc1oc2ccc(OCc3cccnc3C(F)(F)F)c(C#N)c2c1C(=O)NC1CCNCC1(F)F (single isomer, unassigned) [191-En 1, 4-cyano-N-(3,3-difluoropiperidin-4-yl)-2-methyl-5-((2-(trifluoromethyl)pyridin-3-yl)methoxy) -benzofuran-3-carboxamide]",> 20 µM
5,"Cc1oc2cc(C#N)c(OCc3cccnc3C(F)(F)F)cc2c1C(=O)NC1CCNCC1(F)F (single isomer, unassigned) [195-En 1, 6-cyano-N-(3,3-difluoropiperidin-4-yl)-2-methyl-5-((2-(trifluoromethyl)pyridin-3-yl)methoxy) -benzofuran-3-carboxamide]",> 20 µM
6,"Cc1oc2cc(C#N)c(OCc3cccnc3C(F)(F)F)cc2c1C(=O)NC1CCNCC1(F)F (single isomer, unassigned) [195-En 2, 6-cyano-N-(3,3-difluoropiperidin-4-yl)-2-methyl-5-((2-(trifluoromethyl)pyridin-3-yl)methoxy) -benzofuran-3-carboxamide]",> 20 µM
7,"Cc1oc2c(C#N)cc(OCc3cccnc3C(F)(F)F)cc2c1C(=O)NC1CCNCC1(F)F (single isomer, unassigned) [196-En 1, 7-cyano-N-(3,3-difluoropiperidin-4-yl)-2-methyl-5-((2-(trifluoro-methyl)pyridin-3-yl)methoxy)benzofuran-3-carboxamide]",> 20 µM
8,"Cc1oc2c(C#N)cc(OCc3cccnc3C(F)(F)F)cc2c1C(=O)NC1CCNCC1(F)F (single isomer, unassigned) [196-En 2, 7-cyano-N-(3,3-difluoropiperidin-4-yl)-2-methyl-5-((2-(trifluoro-methyl)pyridin-3-yl)methoxy)benzofuran-3-carboxamide]",1 to 20 µM
9,"Cc1ncsc1COc1ccc2oc(C(F)F)c(C(=O)NC3CCN(CCO)C3=O)c2c1 (single isomer, unassigned) [198-En 1, 2-(difluoromethyl)-N-(1-(2-hydroxyethyl)-2-oxopyrrolidin-3-yl)-5-((4-methylthiazol-5-yl) -methoxy)benzofuran-3-carboxamide]",1 to 20 µM

# Further lines, results first:
row,IC50,Structure (SMILES)
1,< 1 µM,"Cc1ncsc1COc1ccc2oc(C)c(C(=O)NC3CCN(CC(F)(F)F)C3)c2c1 (single isomer, unassigned) [116-En 1, 2-methyl-5-((4-methylthiazol-5-yl)methoxy)-N-(1-(2,2,2-trifluoroethyl)pyrrolidin-3-yl)benzofuran-3-carboxamide]"
2,< 1 µM,"Cc1oc2ccc(OCc3cccnc3C(F)(F)F)cc2c1C(=O)NC1CCN(CCO)C1=O (single isomer, unassigned) [120-En 1, N-(1-(2-hydroxyethyl)-2-oxopyrrolidin-3-yl)-2-methyl-5-((2 (trifluoromethyl)pyridin-3-yl)methoxy)benzofuran-3-carboxamide]"
3,< 1 µM,"Cc1oc2ccc(OCc3cccnc3C(F)(F)F)cc2c1C(=O)NC1CN(C)CC1(F)F (single isomer, unassigned) [124-En 1, N-(4,4-difluoro-1-methylpyrrolidin-3-yl)-2-methyl-5-((2-(trifluoromethyl)pyridin-3-yl)methoxy) -benzofuran-3-carboxamide]"
4,< 1 µM,"Cc1oc2ccc(OCc3cccnc3C(F)(F)F)cc2c1C(=O)NC1COCC1O (single isomer, unassigned) [147-Dia 1-En 1, N-(4-hydroxytetrahydrofuran-3-yl)-2-methyl-5-((2-(trifluoromethyl)pyridin-3-yl)methoxy) -benzofuran-3-carboxamide]"
5,< 1 µM,"Cc1oc2ccc(OCc3cccnc3C(F)(F)F)cc2c1C(=O)NC1COCC1O (single isomer, unassigned) [147-Dia 1-En 2, N-(4-hydroxytetrahydrofuran-3-yl)-2-methyl-5-((2-(trifluoromethyl)pyridin-3-yl)methoxy) -benzofuran-3-carboxamide]"
6,< 1 µM,"Cc1oc2ccc(OCc3cccnc3C(F)(F)F)cc2c1C(=O)NC1CCN(CC(F)(F)F)C1 (single isomer, unassigned) [149-En 1, 2-methyl-N-(1-(2,2,2-trifluoroethyl)pyrrolidin-3-yl)-5-((2-(trifluoromethyl)pyridin-3-yl)methoxy) -benzofuran-3-carboxamide]"
7,< 1 µM,"Cc1oc2ccc(OCc3cccnc3C(F)(F)F)cc2c1C(=O)NC1CN(CC(F)(F)F)CC1(F)F (single isomer, unassigned) [157-En 1, N-(4,4-difluoro-1-(2,2,2-trifluoroethyl)pyrrolidin-3-yl)-2-methyl-5-((2-(trifluoromethyl)pyridin-3-yl)methoxy)benzofuran-3-carboxamide]"
8,1 to 20 µM,"Cc1cc2oc(C)c(C(=O)NC3CCNCC3(F)F)c2cc1OCc1cccnc1C(F)(F)F (single isomer, unassigned) [179-En 1, N-(3,3-difluoropiperidin-4-yl)-2,6-dimethyl-5-((2-(trifluoromethyl)pyridin-3-yl)methoxy)benzo-furan-3-carboxamide]"
9,> 20 µM,"Cc1cc2oc(C)c(C(=O)NC3CCNCC3(F)F)c2cc1OCc1cccnc1C(F)(F)F (single isomer, unassigned) [179-En 2, N-(3,3-difluoropiperidin-4-yl)-2,6-dimethyl-5-((2-(trifluoromethyl)pyridin-3-yl)methoxy)benzo-furan-3-carboxamide]"
10,< 1 µM,"O=C(NC1CCNCC1(F)F)c1c(C(F)F)oc2ccc(OCc3cccnc3C(F)(F)F)cc12 (single isomer, unassigned) [199-En 1, 2-(difluoromethyl)-N-(3,3-difluoropiperidin-4-yl)-5-((2-(trifluoromethyl)pyridin-3-yl)methoxy) -benzofuran-3-carboxamide]"

# Same assay, conditions: PS (50 μM) stimulated, cpds. 400-499
row,IC50,Structure (SMILES)
1,< 1 µM,"Cc1ncsc1COc1ccc2oc(C)c(C(=O)NC(CO)CN(C)C)c2c1 (single isomer, unassigned) [413-En 1, N-(1-(dimethylamino)-3-hydroxypropan-2-yl)-2-methyl-5-((4-methylthiazol-5-yl)methoxy)benzofuran-3-carboxamide]"
